According to paper PMC11501026, “L-Arginine and asymmetric dimethylarginine (ADMA) transport across the mouse blood-brain and blood-CSF barriers: Evidence of saturable transport at both interfaces and CNS to blood efflux” (PLOS ONE, 2024):
Where “and” joins values, the source holds several entries; their conditions need not be identical. Equal entries are not always repeated. Structures can show the parent of a compound that is named as a salt.

Test: in situ brain/choroid plexus perfusion: CNS uptake of [^3H]-arginine, [^3H]-ADMA and [^14C]-sucrose (multiple-time and single-time uptake analysis)
Settings: for uptake into caudate nucleus / uptake into choroid plexus / uptake into frontal cortex / uptake into occipital cortex / Kp at 30 min, 62.5 nM: 30 mins; for Kp at […] / Kp at 20 min, 62.5 nM / Kp at 30 min, 62.5 nM / Kp at 10 min, 62.5 nM / Kp at […], 62.5 nM / Kp at 10 min: male, BALB/c, mouse; for Kp at […] / Kp at […], 62.5 nM: 2.5 mins
[1] = CONTROL, 10 mins, Balb/c ♂, 5ml/min, mean
[2] = [3H] ADMA + [14C] Sucrose, Balb/c ♂, 5ml/min, individual mice
[3] = [3H] ADMA + [14C] Sucrose, Balb/c ♂, 5ml/min, mean
[4] = CSF, Difference (ADMA minus Sucrose), 5ml/min, mean
[5] = CSF, [3H] ADMA and [14C] Sucrose uptake, 5ml/min, mean
[6] = caudate nucleus, Difference (ADMA minus Sucrose), 5ml/min, mean
[7] = caudate nucleus, [3H] ADMA and [14C] Sucrose uptake, 5ml/min, mean
[8] = cerebellum, Difference (ADMA minus Sucrose), 5ml/min, mean
[9] = cerebellum, [3H] ADMA and [14C] Sucrose uptake, 5ml/min, mean
[10] = choroid plexus, Difference (ADMA minus Sucrose), 5ml/min, mean
[11] = choroid plexus, [3H] ADMA and [14C] Sucrose uptake, 5ml/min, mean
[12] = frontal cortex, Difference (ADMA minus Sucrose), 5ml/min, mean
[13] = frontal cortex, [3H] ADMA and [14C] Sucrose uptake, 5ml/min, mean
[14] = hippocampus, Difference (ADMA minus Sucrose), 5ml/min, mean
[15] = hippocampus, [3H] ADMA and [14C] Sucrose uptake, 5ml/min, mean
[16] = hypothalamus, Difference (ADMA minus Sucrose), 5ml/min, mean
[17] = hypothalamus, [3H] ADMA and [14C] Sucrose uptake, 5ml/min, individual mouse
[18] = hypothalamus, [3H] ADMA and [14C] Sucrose uptake, 5ml/min, mean
[19] = occipital cortex, Difference (ADMA minus Sucrose), 5ml/min, mean
[20] = occipital cortex, [3H] ADMA and [14C] Sucrose uptake, 5ml/min, mean
[21] = pineal gland, Difference (ADMA minus Sucrose), 5ml/min, mean
[22] = pineal gland, [3H] ADMA and [14C] Sucrose uptake, 5ml/min, mean
[23] = pituitary gland, Difference (ADMA minus Sucrose), 5ml/min, mean
[24] = pituitary gland, [3H] ADMA and [14C] Sucrose uptake, 5ml/min, mean
[25] = pons, Difference (ADMA minus Sucrose), 5ml/min, mean
[26] = pons, [3H] ADMA and [14C] Sucrose uptake, 5ml/min, mean
[27] = thalamus, Difference (ADMA minus Sucrose), 5ml/min, mean
[28] = thalamus, [3H] ADMA and [14C] Sucrose uptake, 5ml/min, individual mouse
[29] = thalamus, [3H] ADMA and [14C] Sucrose uptake, 5ml/min, mean

Protocol: All animals used in procedures were adult male BALB/c mice (between 23 g and 25 g) sourced from Harlan Laboratories, Oxon, UK, unless otherwise stated.
Animals were weighed immediately before the administration of the anaesthetic to ensure correct dosage. Domitor® (medetomidine hydrochloride) and Vetalar® (ketamine) were both purchased from Harlan Laboratories (Cambridge, UK). All animals were terminally anaesthetised (2 mg/kg Domitor® and 150 mg/kg Vetalar® injected intraperitoneally), and a lack of self-righting and paw-withdrawal reflexes (as surrogate indicators of consciousness) thoroughly checked prior to and during all procedures. If needed, additional anaesthetic was administered via the same route. […] At the end of the in situ brain perfusion procedure the animal was killed by decapitated under non-recovery anaesthesia. Animals were heparinised with 100 units heparin (in 0.9% m/v NaCl(aq), Harlan Laboratories; Oxon, UK), administered via the intraperitoneal route prior to surgery.
The in situ brain/choroid plexus perfusion method is designed to directly perfuse the brain with artificial plasma via a cannula placed in the heart. Artificial plasma is prepared to mimic the ionic composition of blood, and transporter inhibitors can be added in known concentrations and delivered to the brain for defined periods of time.
The left ventricle of the heart was cannulated with a 25G x 10 mm butterfly-winged needle connected to the perfusion circuit. […] The right atrium of the heart was sectioned to allow outflow of the artificial plasma. […] Radiolabelled and unlabelled test molecules were infused into the inflowing artificial plasma for periods up to 30 minutes.
At the set perfusion time a CSF sample was taken by inserting a pulled glass micropipette connected to silicon tubing and a syringe into the cisterna magna. Gentle suction was applied, and CSF was withdrawn. Only clear CSF samples were processed and taken for analysis. Samples contaminated with blood were discarded. The animal was then decapitated and the brain removed. Specific brain samples including the circumventricular organs (CVOs) were taken using a Leica S4E L2 stereomicroscope (Leica; Buckinghamshire, UK). The brain samples included the frontal cortex, caudate nucleus, occipital cortex, hippocampus, hypothalamus, thalamus, pons and cerebellum. The CVOs included the choroid plexus, pituitary gland and pineal gland.
All samples (brain regions, capillary depletion brain homogenate, pellet and supernatant, CVOs, CSF and plasma samples) were solubilised in 0.5 mL tissue solubiliser (Solvable; Perkin-Elmer; Boston, MA, USA). After incubating the samples at room temperature for 48 h, 4 mL scintillation fluid (Lumasafe®; Perkin-Elmer; Boston, MA, USA) was added to each before vigorous vortexing.

CN(C)C(N)=NCCC[C@H](N)C(=O)O [ADMA, N^G,N^G-dimethylarginine dihydrochloride]
Difference (ADMA minus Sucrose), thalamus [1]: 0.21 | [3H] ADMA and [14C] Sucrose uptake, caudate nucleus [1]: 0.2609 | [3H] ADMA and [14C] Sucrose uptake, cerebellum [1]: 0.1856 | [3H] ADMA and [14C] Sucrose uptake, choroid plexus [1]: 2.881 | [3H] ADMA and [14C] Sucrose uptake, hippocampus [1]: 0.2336 | [3H] ADMA and [14C] Sucrose uptake, hypothalamus [1]: 0.341 | [3H] ADMA and [14C] Sucrose uptake, occipital cortex [1]: 0.2471 | [3H] ADMA and [14C] Sucrose uptake, pituitary gland [1]: 1.982 | [3H] ADMA and [14C] Sucrose uptake, pons [1]: 0.2825 | [3H] ADMA and [14C] Sucrose uptake, thalamus [1]: 0.2291 | [3H] ADMA and [14C] Sucrose uptake, frontal cortex (CONTROL, 10 mins, Balb/c ♂, 5ml/min, mean, in mL/100 g): 0.273 | uptake into caudate nucleus [2]: 0.09268 and 0.2487 and 0.1281 and 0.07499 and 0.1274 | uptake into choroid plexus [2]: 0.5413 and 0.9894 and 0.4672 and 0.3444 and 0.47 | uptake into frontal cortex [2]: 0.1003 and 0.2556 and 0.1339 and 0.07655 and 0.1326 | uptake into occipital cortex [2]: 0.1057 and 0.2389 and 0.1237 and 0.07486 and 0.1517 | uptake into caudate nucleus [3]: 0.1344 | uptake into choroid plexus [3]: 0.5624 | uptake into frontal cortex [3]: 0.1398 | uptake into occipital cortex [3]: 0.139 | Kp at […] [4]: 0.034 | Kp at 20 min, 62.5 nM (CSF, Difference (ADMA minus Sucrose), 5ml/min, individual mouse): 0.197 | Kp at 20 min, 62.5 nM [4]: 0.225 | Kp at 30 min, 62.5 nM [4]: 0.349 | Kp at 10 min, 62.5 nM (CSF, Difference (ADMA minus Sucrose), CONTROL, 10 mins, 5ml/min, mean): 0.267 | Kp at […] [5]: 0.122 | Kp at 20 min, 62.5 nM [5]: 0.433 | Kp at 10 min, 62.5 nM (CSF, [3H] ADMA and [14C] Sucrose uptake, CONTROL, 10 mins, 5ml/min, mean): 0.273 | Kp at 30 min, 62.5 nM (CSF, uptake into CSF, [3H] ADMA + [14C] Sucrose, Balb/c ♂, 5ml/min, mean): 0.721 | Kp at […], 62.5 nM [6]: 0.0936 | Kp at 20 min, 62.5 nM [6]: 0.256 | Kp at […], 62.5 nM [7]: 0.107 | Kp at 20 min, 62.5 nM [7]: 0.28 | Kp at […] [8]: 0.0947 | Kp at 20 min, 62.5 nM [8]: 0.273 | Kp at […] [9]: 0.112 | Kp at 20 min, 62.5 nM [9]: 0.3 | Kp at […], 62.5 nM [10]: 0.671 | Kp at 20 min, 62.5 nM [10]: 1.92 | Kp at […], 62.5 nM (choroid plexus, [3H] ADMA and [14C] Sucrose uptake, 5ml/min, individual mouse): 0.645 | Kp at […], 62.5 nM [11]: 0.855 | Kp at 20 min, 62.5 nM [11]: 2.24 | Kp at […], 62.5 nM (frontal cortex, Difference (ADMA minus Sucrose), 5ml/min, individual mouse): 0.0723 | Kp at […], 62.5 nM [12]: 0.0986 | Kp at 20 min, 62.5 nM [12]: 0.276 | Kp at […], 62.5 nM (frontal cortex, [3H] ADMA and [14C] Sucrose uptake, 5ml/min, individual mouse): 0.0847 | Kp at […], 62.5 nM [13]: 0.113 | Kp at 20 min, 62.5 nM [13]: 0.302 | Kp at […], 62.5 nM (hippocampus, Difference (ADMA minus Sucrose), 5ml/min, individual mouse): 0.0843 | Kp at […], 62.5 nM [14]: 0.1 | Kp at 20 min, 62.5 nM [14]: 0.254 | Kp at […], 62.5 nM (hippocampus, [3H] ADMA and [14C] Sucrose uptake, 5ml/min, individual mouse): 0.0898 | Kp at […], 62.5 nM [15]: 0.109 | Kp at 20 min, 62.5 nM [15]: 0.273 | Kp at […] (hypothalamus, Difference (ADMA minus Sucrose), 5ml/min, individual mouse): 0.0965 | Kp at […] [16]: 0.0993 | Kp at 20 min, 62.5 nM [16]: 0.364 | Kp at […] [17]: 0.114 | Kp at […] [18]: 0.127 | Kp at 20 min, 62.5 nM [17]: 0.38 | Kp at 20 min, 62.5 nM [18]: 0.416 | Kp at […], 62.5 nM (occipital cortex, Difference (ADMA minus Sucrose), 5ml/min, individual mouse): 0.0744 | Kp at […], 62.5 nM [19]: 0.086 | Kp at 20 min, 62.5 nM [19]: 0.268 | Kp at […], 62.5 nM (occipital cortex, [3H] ADMA and [14C] Sucrose uptake, 5ml/min, individual mouse): 0.083 | Kp at […], 62.5 nM [20]: 0.0969 | Kp at 20 min, 62.5 nM [20]: 0.293 | Kp at […], 62.5 nM [21]: 0.235 | Kp at 20 min, 62.5 nM [21]: 0.986 | Kp at 30 min, 62.5 nM [21]: 0.416 | Kp at 10 min (pineal gland, Difference (ADMA minus Sucrose), CONTROL, 10 mins, 5ml/min, mean): 1.94 | Kp at […], 62.5 nM [22]: 0.527 | Kp at 20 min, 62.5 nM [22]: 1.32 | Kp at 10 min (pineal gland, [3H] ADMA and [14C] Sucrose uptake, CONTROL, 10 mins, 5ml/min, mean): 2.56 | Kp at 30 min, 62.5 nM (pineal gland, uptake into pineal gland, [3H] ADMA + [14C] Sucrose, Balb/c ♂, 5ml/min, mean): 0.614 | Kp at […] [23]: 0.585 | Kp at 20 min, 62.5 nM [23]: 1.19 | Kp at […] [24]: 0.761 | Kp at 20 min, 62.5 nM [24]: 1.4 | Kp at […] [25]: 0.0907 | Kp at 20 min, 62.5 nM [25]: 0.306 | Kp at […] (pons, [3H] ADMA and [14C] Sucrose uptake, 5ml/min, individual mouse): 0.0924 | Kp at […] [26]: 0.117 | Kp at 20 min, 62.5 nM [26]: 0.347 | Kp at […] (thalamus, Difference (ADMA minus Sucrose), 5ml/min, individual mouse): 0.0741 | Kp at […] [27]: 0.0969 | Kp at 20 min, 62.5 nM [27]: 0.282 | Kp at […] [28]: 0.0799 | Kp at […] [29]: 0.108 | Kp at 20 min, 62.5 nM [28]: 0.331 | Kp at 20 min, 62.5 nM [29]: 0.312 | CNS-to-blood efflux (multiple-time uptake studies, loss of linearity): presence of CNS-to-blood efflux
